Experimental data taken from patent publication US9289444B2, “Composition for promoting hematogenesis containing quercetin 3-O-β-(2″-galloyl)-rhamnopyranoside as active ingredient” (Chungbuk National University Industry Academic Cooperation …, priority 2011, dated 2016).

Test system: BMNCs
Assay: Flow cytometric analysis for cells positive for TER-119
Format: cell-based, mouse
Settings: 7 days, 100 or 200 μM/ml, dose-dependently, vs negative control
Method: To confirm the differentiation of mouse HSCs or EPCs into erythroid cells by QGR treatment, flow cytometric analysis for mouse anti-TER-119 was performed. BMNCs were cultured with either rEpo (3 units/ml) or QGR (100 or 200 μM/ml) in 6-well plates. Cells were harvested at day 7, washed with PBS, re-suspended at concentration of 1×10^5 cells/ml in 100 μl of PBS containing 0.02% sodium azide and 2% FBS, incubated with 10 μl of mouse anti-CD16/CD32 Ab (eBioScience, San Diego, Calif., USA) as Fc receptor blocker for 3 min at room temperature and incubated with PE-conjugated anti-TER-119 Ab for 20 min at 4° C. Flow cytometric analysis was performed using FACS Calibur (Becton Dickinson, Oxnard, Calif., USA) and the percentage of positively stained cells was determined.

CC1OC(Oc2c(-c3ccc(O)c(O)c3)oc3cc(O)cc(O)c3c2=O)C(OC(=O)c2cc(O)c(O)c(O)c2)C(O)C1O (stereo not drawn) [QGR, quercetin 3-O-β-(2″-galloyl)-rhamnopyranoside]
ratio of TER-119+ cells (flow cytometric analysis): significantly increased
